Measured values: BindingDB's records for doi:10.1021/acs.jmedchem.6b01270 (University of Tennessee Health Science Center, 2017)

Experiment: Inhibition of ATX (unknown origin) expressed in human A2058 cells assessed as inhibition of LPC-induced cell invasion after 20 hrs by calcein-AM dye based matrigel-mediated Boyden chamber assay

| IC50 | Structure (SMILES) |
| --- | --- |
| 528 nM | O=C(Nc1ccc(F)c(F)c1)c1cc(S(=O)(=O)N2CCOCC2)c(Cl)cc1Cl |
| 403 nM | O=S(=O)(c1cc(C(=S)Nc2cc(F)c(F)c(F)c2)c(Cl)cc1Cl)N1CCOCC1 |
| 740 nM | O=C(Nc1cc(F)c(Cl)c(F)c1)c1cc(S(=O)(=O)N2CCOCC2)c(Cl)cc1Cl |
